Laboratory results published in US6586419B1, “Phototherapeutic inactivation of ocular viruses” (PDT Systems, Inc., priority 1997, dated 2003).
Values joined by “and” are separate entries in the source; they are usually repeats but may differ in a detail not shown here. Equal entries are not always repeated.

What was measured:
cell associated CMV = test: Inactivation of cell-associated CMV by SnET2 and light (viral infectivity/titer); assay type: cell-based, cytomegalovirus; conditions: for viral infectivity (viral titer): LIGHT (52 mW/cm^2, 1.56 J/cm^2)
Description: To inactivate virus from a frozen viral stock with SnET2 and light doses, the following procedure was employed. Following light treatment, undiluted virus and drug/virus mixture were diluted 10-fold up to 1:10^6. All dilutions were used to infect sub-confluent, heat-shocked cultures of a cell line plated in tissue cultures of 24 well plate in triplicates. The infected cultures were treated with antibody against the major viral […] protein. An alkaline phosphatase labeled antibody to mouse IgG was then added followed by the alkaline phosphatase substrate. This produced a colored reaction which can be monitored microscopically in positive wells. The infected cells were characterized by a dark purple coloration in the nucleus. Viral titer or viral infectivity was determined by the last viral concentration that gave at least one infected cell per well.

cell-associated HSV = test: Inactivation of cell-associated HSV by SnET2 and light (viral infectivity/titer); assay type: cell-based, Herpes simplex virus; conditions: for viral infectivity (viral titer): LIGHT (52 mW/cm^2, 1.56 J/cm^2)
[1] = system: cell-free Herpes simplex virus (HSV); test: Inactivation of cell-free HSV by SnET2 and 660 nm light (viral infectivity/titer); assay type: cell-based
Description: The infectivity of cell-free HSV exposed to SnET2 doses ranging from 10 μg/mL to 0.1 μg/mL and 660 nm light doses of 1.56 J/cm^2 are shown in Table 1.
The infectivity of cell-free HSV exposed to 0.1 μg/mL SnET2 and light doses ranging from 1.56 J/cm^2 to 25 J/cm^2 are shown below in FIG. 2.
To inactivate virus from a frozen viral stock with SnET2 and light doses, the following procedure was employed. Following light treatment, undiluted virus and drug/virus mixture were diluted 10-fold up to 1:10^6. All dilutions were used to infect sub-confluent, heat-shocked cultures of a cell line plated in tissue cultures of 24 well plate in triplicates. The infected cultures were treated with antibody against the major viral capside protein. An alkaline phosphatase labeled antibody to mouse IgG was then added followed by the alkaline phosphatase substrate. This produced a colored reaction which can be monitored microscopically in positive wells. The infected cells were characterized by a dark purple coloration in the nucleus. Viral titer or viral infectivity was determined by the last viral concentration that gave at least one infected cell per well.

[2] = daily systemic intravenous administration; cited from earlier work
[3] = system: cytomegalovirus (CMV) retinitis; conditions: AIDS patients with CMV retinitis on anti-HIV and anti-CMV therapy; cited from earlier work

SMILES: CCOC(=O)C1=Cc2c3nc(cc4nc(cc5[n-]c(cc6[n-]c2c(C)c6CC)c(C)c5CC)C(C)=C4CC)[C@@H](C)[C@]13CC.[Cl-].[Cl-].[Sn] (racemic) [SnET2, tin ethyl etiopurpurin]
- viral infectivity (viral titer) (cell associated CMV; 1 μg/mL, CMV 1:2): >10^3
- viral infectivity (viral titer) (cell associated CMV; 1 μg/mL, CMV 1:10, two values given): < 10^2 and 10^4
- viral infectivity (viral titer) (cell associated CMV; 5 μg/mL, CMV 1:2): >10^3
- viral infectivity (viral titer) (cell associated CMV; 5 μg/mL, CMV 1:10, two values given): < 10^2 and 10^3
- inactivation of virus in vitro (summary) (cell associated CMV; SnET2 and light, cell associated CMV): complete inactivation
- inactivation (complete inactivation) (cell associated CMV; drug dose 1-10 μg/mL, light dose 15.6 J/cm^2): 2-5 log10
- viral infectivity (viral titer) (cell-associated HSV; 1 μg/mL): 10^3
- viral infectivity (viral titer) (cell-associated HSV; 5 μg/mL): <10^3
- inactivation of virus in vitro (summary) (cell-associated HSV; SnET2 and light, cell associated HSV): complete inactivation
- viral infectivity (viral titer) ([1]; 0.1 μg/mL, 660 nm LIGHT (26 mW/cm^2, 1.56 J/cm^2)): 10^3
- viral infectivity (viral titer) ([1]; 0.1 μg/mL, DARK): 10^6
- viral infectivity (viral titer), light dose response ([1]; 0.1 μg/mL, DARK): 10^6
- viral infectivity (viral titer), light dose response ([1]; 0.1 μg/mL, Light 26 mW/cm^2, 1.56 J/cm^2): 10^3
- viral infectivity (viral titer), light dose response ([1]; 0.1 μg/mL, Light 26 mW/cm^2, 3.12 J/cm^2): <10^3
- viral infectivity (viral titer), light dose response ([1]; 0.1 μg/mL, Light 26 mW/cm^2, 6.24 J/cm^2): <10^2
- viral infectivity (viral titer), light dose response ([1]; 0.1 μg/mL, Light 26 mW/cm^2, 12.5 J/cm^2): <10^1
- viral infectivity (viral titer), light dose response ([1]; 0.1 μg/mL, Light 26 mW/cm^2, 25 J/cm^2): <10^1
- viral infectivity (viral titer) ([1]; 1 μg/mL, 660 nm LIGHT (26 mW/cm^2, 1.56 J/cm^2)): <10^1
- viral infectivity (viral titer) ([1]; 1 μg/mL, DARK): 10^6
- dark toxicity ([1]; 10 μg/mL to 0.1 μg/mL, no light): No dark toxicity was observed
- viral infectivity (viral titer) ([1]; 10 μg/mL, 660 nm LIGHT (26 mW/cm^2, 1.56 J/cm^2)): <10^1
- viral infectivity (viral titer) ([1]; 10 μg/mL, DARK): 10^6
- inactivation of virus in vitro (summary) ([1]; SnET2 and light, cell-free HSV): complete inactivation
- inactivation of the virus (partial response) ([1]; drug dose 0.1 μg/mL, light dose 1.56 J/cm^2, 660 nm): 3 log10
- inactivation of the virus (complete inactivation) ([1]; drug dose 1 μg/mL, light dose 1.56 J/cm^2, 660 nm): > 5 log10
- inactivation of the virus (complete inactivation) ([1]; drug dose 10 μg/mL, light dose 1.56 J/cm^2, 660 nm): > 5 log10

SMILES: Nc1nc2c(ncn2COCCO)c(=O)[nH]1 [anywhere, acyclovir]
- systemic toxicity [2]: causing renal toxicity

SMILES: O=C(O)P(=O)(O)O [foscarnet]
- systemic toxicity [2]: causing renal toxicity
- median survival [3]: 12.6 months

SMILES: Nc1nc(O)c2ncn(COC(CO)CO)c2n1 [ganciclovir]
- systemic toxicity [2]: suppressing the bone marrow
- median survival [3]: 8.5 months
